The values below come from patent US11958887B2, “Gene therapy for tuberous sclerosis” (The General Hospital Corporation, priority 2017, dated 2024).

The test system of this test is Tsc2^c/c mice injected ICV with AAV1-CBA-Cre. Description: Survival of Tsc2^c/c mice lacking tuberin (AAV1-CBA-Cre ICV) after treatment. Type of test: in vivo. The conditions noted are these: AAV1-CBA-Cre ICV at P0; no cTuberin vector; vigabatrin 200 mg/kg. Here is the method: Experimental research protocols were approved by the Institutional Animal Care and Use Committee (IACUC) for the Massachusetts General Hospital (MGH) following the guidelines of the National Institutes of Health for the Care and Use of Laboratory Animals. Experiments were performed on Tsc2^c/c floxed mice (Onda et al., J. Clin. Invest. 104(6):687-695, 1999). In response to Cre recombinase, the Tsc2^c/c alleles are converted to null alleles, and the lacZallele expresses β-galactosidase. These mice have a normal, healthy lifespan.
For vector injections, on the day of birth (postnatal day 0 (P0)) or on P3, neonates were cryo-anesthetized and injected with 1 μl or 2 μl of viral vector AAV1-CBA-Cre into each cerebral lateral ventricle with a glass micropipette ([…] diameter at the tip) using a Narishige® IM300 microinjector at a rate of 2.4 psi/sec (Narshige International, East Meadow, NY). Mice were then placed on a warming pad and returned to their mothers after regaining normal color and full activity typical of newborn mice.
At 3 weeks of age (P21) mice were anesthetized by isoflurane inhalation (3.5% isoflurane in an induction chamber, then maintained anesthetized with 2-3% isoflurane and 1-2 liter/min oxygen for the duration of the experiment). […]

`C=CC(N)CCC(=O)O` (stereo not shown) [vigabatrin] showed a median survival of 27 days.
